Experimental data published in US20070265164A1, “Active Substances for Increasing Pathogenic Defense in Plants and Methods for the Detection Thereof” (Bayer Cropscience GmbH, priority 2004, published 2007).

How the values were obtained:
[1] = system: jasmonic acid biosynthesis; test: GEP, induction pattern of the jasmonic acid biosynthesis genes; format: in vivo, barley; details: compared with the other safeners and resistance inductors
Method: Barley plants (cv. Baronesse) were grown in compost-filled pots (diameter: 10 cm) for 10 days in a controlled-environment cabinet under defined light, humidity and temperature conditions (white light, 70% atmospheric humidity, 24° C.). At the time of spray application, the seedlings were approximately 15 cm in size. The test substances selected in this example were molecules which differ markedly in their structure and which have a well documented pronounced safener effect, and other molecules which are known from the literature to have an effect on plant stress and pathogen tolerance (Table 1). The substances were prepared as stock solutions in DMSO (dimethyl sulfoxide) at c=10 mg/ml). This was used for preparing dilutions in water supplemented with 0.2% Agrotin (comprises polyvinyl alcohol, silicones, polysaccharides and pH regulators, manufacturer: Bayer CropScience AG, Monheim, Germany), as wetter, to give the application rates shown in the table. The amount of liquid for the spray application was 800 μl per pot, corresponding to 800 l/ha. For each 800 μl of spray mixture, 16 μl of EC premix: diacetone alcohol=1:6 were additionally added as formulation auxiliaries. The substances listed in Table 1 were applied to the leaves by means of a pneumatic spray pistol. […] The fluorescent data obtained were analyzed with the software Microarray Suite 5 from Affymetrix. […]

aphids = test: Plant-free Sachez test, direct toxicity; format: in vivo
Text: A direct toxicity of isoxadifen-ethyl (S3) against aphids was not detected in the plant-free Sachez test.

Oxophytodienoate (OPDA) = Oxophytodienoate (OPDA) concentration in leaves of treated plants, GC-MS/MS; format: in vivo, barley
Method: (§1) Barley plants (cv. Baronesse) were grown under the conditions described in Example 1 and treated by spray application with safener isoxadifen-ethyl (S 3). The application rates were chosen as follows:
(§2) (1) 30 [g a.i./ha]; (2) 150 [g a.i./ha]; (3) blank formulation (no active ingredient)
[…] All samples were designed in each case as replications of 3 pots.
(§3) The octadecanoates and jasmonates were processed from the leaves following a procedure described in the literature (Müller A, Düchting P and Weiler E W (2002)), A multiplex GC-MS/MS technique for the sensitive and quantitative single-run analysis of acidic phytohormones and related compounds, and its application to Arabidopsis thaliana. Planta, 216, 44-56).
(§4) 300 mg of plant material were extracted for each measuring point.
(§5) 50 pmol [^13C]2-JA and 100 pmol [17,17,17,18,18-^2H]-cis-OPDA were applied as internal standards. The extracts were purified via aminopropyl anion-exchange chromatography in miniature solid-phase exchanger columns which had been prepared in-house.
(§6) The results are shown in Tables 3a to 3d, the values shown being in each case means of the 3 applications.

Jasmonate (JA) [2] = test: Jasmonate (JA) concentration in leaves of treated plants, GC-MS/MS; format: in vivo, barley
Method: as §1, §2
The plant leaves were harvested at different points in time after the treatment (h=hours), viz. after 1 h, 2 h, 4 h, 6 h, 12 h, 24 h and 48 h. All samples were designed in each case as replications of 3 pots.
as §3, §4, §5, §6

Jasmonate (JA) [3] = test: as above; format: in vivo, barley; details: 0 hours

CCOC(=O)C1=NOC(c2ccccc2)(c2ccccc2)C1 [S3, Isoxadifen-ethyl]
Effect on jasmonic acid biosynthesis (induction pattern) [1]: most pronounced
Direct toxicity against aphids (aphids): not detected
Oxophytodienoate (OPDA) concentration (Oxophytodienoate (OPDA); 30 g a.i/ha, 0 hours): 2500 pmol/g leaf tissue
Oxophytodienoate (OPDA) concentration (Oxophytodienoate (OPDA); 30 g a.i/ha, 1 hour): 6500 pmol/g leaf tissue
Oxophytodienoate (OPDA) concentration (Oxophytodienoate (OPDA); 30 g a.i/ha, 2 hours): 3750 pmol/g leaf tissue
Oxophytodienoate (OPDA) concentration (Oxophytodienoate (OPDA); 30 g a.i/ha, 4 hours): 7000 pmol/g leaf tissue
Oxophytodienoate (OPDA) concentration (Oxophytodienoate (OPDA); 30 g a.i/ha, 6 hours): 9000 pmol/g leaf tissue
Oxophytodienoate (OPDA) concentration (Oxophytodienoate (OPDA); 150 g a.i./ha, 0 hours): 2600 pmol/g leaf tissue
Oxophytodienoate (OPDA) concentration (Oxophytodienoate (OPDA); 150 g a.i./ha, 1 hour): 2800 pmol/g leaf tissue
Oxophytodienoate (OPDA) concentration (Oxophytodienoate (OPDA); 150 g a.i./ha, 2 hours): 1800 pmol/g leaf tissue
Oxophytodienoate (OPDA) concentration (Oxophytodienoate (OPDA); 150 g a.i./ha, 4 hours): 2200 pmol/g leaf tissue
Oxophytodienoate (OPDA) concentration (Oxophytodienoate (OPDA); 150 g a.i./ha, 6 hours): 5100 pmol/g leaf tissue
Oxophytodienoate (OPDA) concentration (Oxophytodienoate (OPDA); 150 g a.i./ha, 12 hours): 2400 pmol/g leaf tissue
Oxophytodienoate (OPDA) concentration (Oxophytodienoate (OPDA); 150 g a.i./ha, 24 hours): 5100 pmol/g leaf tissue
Oxophytodienoate (OPDA) concentration (Oxophytodienoate (OPDA); 150 g a.i./ha, 48 hours): 1900 pmol/g leaf tissue
Increase in OPDA concentration relative to blank formulation samples (Oxophytodienoate (OPDA); maximum over rates and times): ≤ 5 times
Oxophytodienoate (OPDA) concentrations, range over the experiment (Oxophytodienoate (OPDA); summary of Tables 3a, 3b, all rates and times): 1800-9000 pmol/g leaf tissue
Jasmonate (JA) concentration (Jasmonate (JA) [2]; 30 g a.i/ha, 1 hour): 600 pmol/g leaf tissue
Jasmonate (JA) concentration (Jasmonate (JA) [2]; 30 g a.i/ha, 2 hours): 320 pmol/g leaf tissue
Jasmonate (JA) concentration (Jasmonate (JA) [2]; 30 g a.i/ha, 4 hours): 790 pmol/g leaf tissue
Jasmonate (JA) concentration (Jasmonate (JA) [2]; 30 g a.i/ha, 6 hours): 620 pmol/g leaf tissue
Jasmonate (JA) concentration (Jasmonate (JA) [2]; 150 g a.i./ha, 1 hour): 290 pmol/g leaf tissue
Jasmonate (JA) concentration (Jasmonate (JA) [2]; 150 g a.i./ha, 2 hours): 280 pmol/g leaf tissue
Jasmonate (JA) concentration (Jasmonate (JA) [2]; 150 g a.i./ha, 4 hours): 270 pmol/g leaf tissue
Jasmonate (JA) concentration (Jasmonate (JA) [2]; 150 g a.i./ha, 6 hours): 275 pmol/g leaf tissue
Jasmonate (JA) concentration (Jasmonate (JA) [2]; 150 g a.i./ha, 12 hours): 155 pmol/g leaf tissue
Jasmonate (JA) concentration (Jasmonate (JA) [2]; 150 g a.i./ha, 24 hours): 265 pmol/g leaf tissue
Jasmonate (JA) concentration (Jasmonate (JA) [2]; 150 g a.i./ha, 48 hours): 320 pmol/g leaf tissue
Increase in JA concentration relative to blank formulation samples (Jasmonate (JA) [2]; maximum over rates and times): ≤ 5 times
Jasmonate (JA) concentrations, range over the experiment (Jasmonate (JA) [2]; summary of Tables 3c, 3d, all rates and times): 70-800 pmol/g leaf tissue
Jasmonate (JA) concentration (Jasmonate (JA) [3]; 30 g a.i/ha): 140 pmol/g leaf tissue
Jasmonate (JA) concentration (Jasmonate (JA) [3]; 150 g a.i./ha): 140 pmol/g leaf tissue
